From ChEMBL document CHEMBL6114939, “Identification of Dual Inhibitors Targeting Main Protease (Mpro) and Cathepsin L as Potential Anti-SARS-CoV-2 Agents” (ACS Med Chem Lett, 2024) come the findings set out here.

Where only a bound is given, the exact number is not on record here.

As usually defined, the CC50 is the concentration giving 50% cytotoxicity. A high value points to better tolerance by the cells. One may read the Ki as the dissociation constant of the complex between target and ligand, obtained from inhibition or displacement.

The test system of assay [1] is Severe acute respiratory syndrome coronavirus 2. The assay is described as follows: Inhibition of N-terminal sumo/his-6 tagged SARS CoV-2 MPro (3264 to 3569 residues) extracted from Escherichia coli BL21 Gold (DE3) cells assessed as residual activity using Dabcyl-KTSAVLQSGFRKMEE-dans as substrate at 1 uM incubated for 10 mins by FRET assay relative to control.
Assay [2] deals with T1, Procathepsin L (Homo sapiens, UniProt P07711). Put plainly: Inhibition of human Cathepsin L assessed as residual activity using Cbz-FR-AMC as substrate at 1 uM preincubated for 20 mins at room temperature followed by substrate addition and measured after 10 mins by FRET assay. The following applies: time 30.0 min.
Target sequence in this assay (P07711 114-333 limits assumed): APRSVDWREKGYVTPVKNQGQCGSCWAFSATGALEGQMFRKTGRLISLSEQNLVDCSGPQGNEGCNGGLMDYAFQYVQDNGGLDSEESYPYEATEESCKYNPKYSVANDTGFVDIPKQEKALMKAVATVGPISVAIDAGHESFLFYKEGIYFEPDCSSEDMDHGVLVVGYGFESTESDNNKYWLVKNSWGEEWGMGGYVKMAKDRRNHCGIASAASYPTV
In another assay the test system is Huh-7. Put plainly: Cytotoxicity against human Huh-7 cells overexpressing human ACE2 incubated for 24 hrs by MTT assay. In kind it is functional. In general terms: Tetrazolium dyes change colour on reduction, which living cells bring about.
The next assay addresses Cathepsin S (Homo sapiens, UniProt P25774). Put plainly: Binding affinity to human Cathepsin S assessed as inhibition constant using Cbz-VVR-AMC as substrate preincubated for 20 mins at room temperature followed by substrate addition and measured after 10 mins by FRET assay.
The nature of assay [3]: Binding affinity to N-terminal sumo/his-6 tagged SARS CoV-2 MPro (3264 to 3569 residues) extracted from Escherichia coli BL21 Gold (DE3) cells assessed as inhibition constant using Dabcyl-KTSAVLQSGFRKMEE-dans as substrate incubated for 10 mins by FRET assay. Also noted: species or system Severe acute respiratory syndrome coronavirus 2.
In assay [4] the target is T1, Procathepsin L. Put plainly: Binding affinity to human Cathepsin L assessed as inhibition constant using Cbz-FR-AMC as substrate preincubated for 20 mins at room temperature followed by substrate addition measured after 10 mins by FRET assay.
Target sequence in this assay (P07711 whole entry): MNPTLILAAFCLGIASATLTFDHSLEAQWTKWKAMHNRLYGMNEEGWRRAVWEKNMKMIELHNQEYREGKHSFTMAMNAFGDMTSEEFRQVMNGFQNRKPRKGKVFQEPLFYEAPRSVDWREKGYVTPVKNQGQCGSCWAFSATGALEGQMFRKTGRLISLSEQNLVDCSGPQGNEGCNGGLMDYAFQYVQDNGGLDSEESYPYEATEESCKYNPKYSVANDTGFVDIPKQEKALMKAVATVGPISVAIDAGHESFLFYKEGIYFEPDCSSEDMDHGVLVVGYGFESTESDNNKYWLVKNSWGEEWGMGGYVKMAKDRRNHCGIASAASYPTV
The target of another assay is Cathepsin B (Homo sapiens, UniProt P07858). The assay is described as follows: Binding affinity to human Cathepsin B assessed as inhibition constant using Cbz-FR-AMC as substrate preincubated for 20 mins at room temperature followed by substrate addition and measured after 10 mins by FRET assay.

Sequence of Cathepsin S (P25774 whole entry, the tested form may be a part): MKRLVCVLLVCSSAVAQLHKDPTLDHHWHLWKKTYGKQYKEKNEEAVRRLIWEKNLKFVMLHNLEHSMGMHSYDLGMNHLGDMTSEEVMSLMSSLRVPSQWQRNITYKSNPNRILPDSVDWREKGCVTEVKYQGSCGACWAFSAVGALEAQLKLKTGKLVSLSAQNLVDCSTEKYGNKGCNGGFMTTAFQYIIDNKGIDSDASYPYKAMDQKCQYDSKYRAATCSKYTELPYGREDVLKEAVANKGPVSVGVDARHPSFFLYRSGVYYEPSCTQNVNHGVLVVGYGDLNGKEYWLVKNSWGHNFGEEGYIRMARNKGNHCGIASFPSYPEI

As for `CC(=O)/C=C/[C@H](C[C@@H]1CCNC1=O)NC(=O)[C@H](CC1CC1)NC(=O)c1ccc(F)cc1`, the figures for the Activity (in assay [1]; on Procathepsin L [2]) were 83.7% and 26.8%, respectively.

With `CC(=O)/C=C/[C@H](C[C@@H]1CCNC1=O)NC(=O)[C@H](CC1CC1)NC(=O)c1ccccc1F`, the CC50 in the assay on Huh-7 is greater than 100000 nM. Besides, the figures for the Activity (in assay [1]; on Procathepsin L [2]) were 57.9% and 23.2%, respectively. Also, the Ki on Cathepsin S was determined as 95.4 nM; in assay [3], 2950 nM; on Procathepsin L [4] it was 294 nM.

With `CCC[C@H](NC(=O)c1ccc(F)cc1)C(=O)N[C@H](/C=C/C(C)=O)C[C@@H]1CCNC1=O`, the Activity was 96.5% in assay [1] and 19.1% on Procathepsin L [2].

`CC(=O)/C=C/[C@H](C[C@@H]1CCNC1=O)NC(=O)[C@H](CC(C)(C)C)NC(=O)c1ccccc1F`: the figures for the Activity (in assay [1]; on Procathepsin L [2]) were 89.4% and 33.5%, respectively.

With `CCC[C@H](NC(=O)c1cccc(F)c1)C(=O)N[C@H](/C=C/C(C)=O)C[C@@H]1CCNC1=O`, the Activity in assay [1] is 101%; on Procathepsin L [2], 8.61%.

For the molecule `CCCC[C@H](NC(=O)c1ccccc1F)C(=O)N[C@H](/C=C/C(C)=O)C[C@@H]1CCNC1=O`, the Activity amounted to 98.7% in assay [1] and 8.66% at Procathepsin L [2].

Molecule `CC(=O)/C=C/[C@H](C[C@@H]1CCNC1=O)NC(=O)[C@H](CC1CCCCC1)NC(=O)c1ccc(F)cc1` showed a CC50 in the assay with Huh-7 of 46900 nM. The Activity in assay [1] worked out at 68.2%; on Procathepsin L [2], 5%. Also, the Ki in assay [3] was 3140 nM; on Procathepsin L [4] it was 17 nM.

On to `CC(=O)/C=C/[C@H](C[C@@H]1CCNC1=O)NC(=O)[C@H](CC(C)(C)C)NC(=O)c1cccc(F)c1`, for which the figures for the Activity (in assay [1]; at Procathepsin L [2]) were 77% and 34.7%, respectively.

Consider `CC(=O)/C=C/[C@H](C[C@@H]1CCNC1=O)NC(=O)[C@H](CC(C)C)NC(=O)c1ccc(F)cc1`, for which the Ki at Cathepsin B was found to be 10900 nM; at Cathepsin S it was 6.23 nM; in assay [3], 5580 nM; at Procathepsin L [4], 20 nM. In the assay with Huh-7, the CC50 is greater than 100000 nM. In addition, the Activity came out at 64.9% in assay [1] and 5.8% at Procathepsin L [2].

As to `CCCC[C@H](NC(=O)c1ccc(F)cc1)C(=O)N[C@H](/C=C/C(C)=O)C[C@@H]1CCNC1=O`, the 50% cytotoxic concentration (CC50) in the assay on Huh-7 is greater than 100000 nM. The Activity was found to be 58.8% in assay [1] and 15.2% on Procathepsin L [2]. The Ki in assay [3] is 10700 nM; on Procathepsin L [4], 141 nM.

For the molecule `CC(=O)/C=C/[C@H](C[C@@H]1CCNC1=O)NC(=O)[C@H](CC(C)C)NC(=O)c1ccccc1F`, the Activity in assay [1] amounted to 88.7%; on Procathepsin L [2], 5.3%.

The molecule `CC(=O)/C=C/[C@H](C[C@@H]1CCNC1=O)NC(=O)[C@H](CC1CCCCC1)NC(=O)c1ccccc1F` gave a CC50 in the assay with Huh-7 of 12600 nM. Further, the Activity in assay [1] came to 56.3%; at Procathepsin L [2] it was 3.4%. In addition, the figures for the Ki (in assay [3]; at Procathepsin L [4]) were 1610 nM and 12 nM, respectively.

Take `CC(=O)/C=C/[C@H](C[C@@H]1CCNC1=O)NC(=O)[C@H](CC1CC1)NC(=O)c1cccc(F)c1`: the Activity in assay [1] was determined as 92.7%; at Procathepsin L [2], 9.76%.

Regarding `CC(=O)/C=C/[C@H](C[C@@H]1CCNC1=O)NC(=O)[C@H](CC(C)C)NC(=O)c1cccc(F)c1`, the values for the Activity (in assay [1]; on Procathepsin L [2]) were 99.5% and 10.9%, respectively.

In the case of `CC(=O)/C=C/[C@H](C[C@@H]1CCNC1=O)NC(=O)[C@H](CC1CCCCC1)NC(=O)c1cccc(F)c1`, it took 22600 nM to reach half-maximal cytotoxicity in the assay on Huh-7 (CC50). In addition, the Activity was 64.2% in assay [1] and 3.6% at Procathepsin L [2]. Moreover, the Ki turned out to be 3660 nM in assay [3] and 4 nM at Procathepsin L [4].

With `CCCC[C@H](NC(=O)c1cccc(F)c1)C(=O)N[C@H](/C=C/C(C)=O)C[C@@H]1CCNC1=O`, the Activity in assay [1] was determined as 86%; at Procathepsin L [2] it was 6.81%.

Turning to `CCOC(=O)/C=C/[C@H](C[C@@H]1CCNC1=O)NC(=O)[C@H](Cc1ccccc1)NC(=O)[C@@H](Cc1ccc(F)cc1)NC(=O)OC(C)(C)C`, the results for the Ki (in assay [3]; at Procathepsin L [4]) were 1800 nM and 145 nM, respectively.

Consider `CCC[C@H](NC(=O)c1ccccc1F)C(=O)N[C@H](/C=C/C(C)=O)C[C@@H]1CCNC1=O`, for which the figures for the Activity (in assay [1]; on Procathepsin L [2]) were 101% and 12%, respectively.

As to `CC(=O)/C=C/[C@H](C[C@@H]1CCNC1=O)NC(=O)[C@H](CC(C)(C)C)NC(=O)c1ccc(F)cc1`, the Ki came to 7700 nM at Cathepsin B, 0.7 nM at Cathepsin S, 5540 nM in assay [3] and 701 nM on Procathepsin L [4]. In the assay on Huh-7, this molecule returned a CC50 greater than 100000 nM. Moreover, the values for the Activity (in assay [1]; at Procathepsin L [2]) were 68.8% and 45.1%, respectively.
